Measurements as given in patent publication US9943560B2, “Medical compositions containing liquorice extracts with synergistic effect” (priority 2010, dated 2018).
In brackets after ≈: the same amount, converted by molar mass. Several values for one entry are separate records, joined by “and”; a condition that tells them apart may be missing. Equal values may be shown once.

Key:
SGC-7901 cells = assay: In vitro killing of SGC-7901 cells (MTS, 72 h); format: cell-based, human; conditions: SGC-7901, 72 h
Protocol: SGC-7901 cells i.e. human gastric cancer cells which are bought from Cell Bank of Chinese Academy of Sciences/Shanghai Institute of Life Sciences Cell Resource Center of Chinese Academy of Sciences are adherent cells.
(§1) 90% 1640 culture solution plus 10% newborn calf serum (NCS), 100 ml in total, and then add lml miscible liquids containing 1% penicillin and 1% streptomycin.
Cultivate it in an incubator of 37° C. with CO2 of 5 percent. The cells will passage once every 3 days, and carry out the experiment when the cells enter their logarithmic growth period after two or three times of passage.
3. Experiment on In Vitro Killing of MCF-7 Cell Source

MCF-7 cells = assay: In vitro killing of MCF-7 cells (MTS, 72 h); format: cell-based, human; conditions: MCF-7, 72 h
Protocol: MCF-7 cells i.e. human breast cancer cells, which are bought from American ATCC, is a kind of adherent cells.
90% 1640 medium+10% fetal calf serum+30mmol/L Hepes+6 μg/ml insulin.
Its culture conditions and experimental procedures are all the same with that of the above method 1.

Colon38 cells = assay: In vitro killing of Colon38 cells (MTS, 72 h); format: cell-based, murine; conditions: Colon38, 72 h
Protocol: 1. Experimental Sources of In Vitro Killing Colon38 Cells
Colon38 cells i.e. murine colon carcinoma cells, which was gifted from Dept. of Pharmacology, Yale Medical School and are a kind of adherent cells.
as §1
Cultivate it in an incubator of 37° C. with 5% CO2. The cells will passage every 3 days, and carry out the experiment when the cells enter their logarithmic growth period after two or three times of passage.
2. Experiment on In Vitro Killing of SGC-7901 Cell Source: […]

[1] = tested on: colon cancer cell strain colon38 transplanted tumor; assay: Anti-tumor effect on colon38 transplanted tumor in mice; format: in vivo; conditions: for Death number: dead animals of 10 per group, represents side effects; for Death number / Average weight of tumor / Tumor inhibiting rate: dose as in Table VI; for Average weight of tumor: mice, once a week, four times; for Average weight of tumor / Tumor inhibiting rate: after four weeks; for Tumor inhibiting rate: vs CK group
Description: Based on the method described in Pharmacology Research Methodology of Chinese Medicine (Chinese TCM Publishing House), test the anti-tumor effects of Chalcone A, G007, AG007-16 etc prepared in Embodiment 1, chemotherapy drugs (5-fluorouracil) and HBD09 on animal model of human cancer heterogeneity transplanted tumor. 5-fluorouracil (short for fu) is a broad-spectrum anti-tumor drug and mainly used to cure digestive tract tumor; the common adverse reactions are sicchasia, anorexia or vomiting, abdominal discomfort or diarrhea.
The dose given is as shown in Table VI; intragastric administration/ or injection administration is given once a week and four times in total.

PC-3 cells = assay: In vitro killing of PC-3 cells (MTS, 72 h); format: cell-based; conditions: PC-3, 72 h
Description: 4. Experiment on In Vitro Killing of PC-3 Cell
PC-3 cells i.e. prostate cancer cells, which are bought from American ATCC, is a kind of adherent cells.
Its medium, culture conditions and experimental procedures are all the same with that of the above method 1.

Colon 38 = assay: Drug combination on inhibiting tumor cells, Combination Index (Chou-Talalay), Colon 38; format: cell-based, murine; conditions: partner drugs as named in the sentence (G007, I3C, DIM, Cis-platinum)
Description: According to the cells and experiment methods used in Embodiment 2, differences are incurred from that dose concentration is confirmed by the following methods: when two drugs are combined, the concentration of one drug is chosen to be approximate to but smaller than IC50 while the concentration of other drugs is chosen to be in gradient dilution, to perform a series of experiments. When it is experimented that 50% tumor cells are inhibited, then the concentration of all drugs used at that moment is recorded as their IC50 value, and the CI value of the two drugs can be calculated with the formula in the above document.

[2] = tested on: postprandial blood glucose of Type 2 diabetics; assay: Clinical observation: postprandial blood glucose control in high-blood-glucose patients; format: in vivo, human
Description: The postprandial blood glucose of Type 2 diabetics not sensitive to insulin is an important index of abnormal glucose metabolism and can be used to test the effect of drugs in reducing blood glucose.

Row | SMILES | IC50 (SGC-7901 cells) [µg/mL] | IC80 (SGC-7901 cells) [µg/mL] | IC50 (MCF-7 cells) [µg/mL] | IC80 (MCF-7 cells) [µg/mL] | IC50 (Colon38 cells) [µg/mL] | IC80 (Colon38 cells) [µg/mL] | Death number [1] | Average weight of tumor [1] [g] | Tumor inhibiting rate [1] [%] | IC50 (PC-3 cells) [µg/mL] | IC80 (PC-3 cells) [µg/mL] | synergistic effects in combination (Colon 38) | anti-tumor effect and side effects in the animal model ([1]; alone or in combination with 5-fluorouracil) | ratio of glucose reduction ([2]; average after-meal glucose with vs without drug intake) [%] | Average blood glucose, drug intake, after meal ([2]; average of three patients, two hours after meal) [mM/L] | effect on controlling postprandial blood glucose ([2]; high-blood-glucose patients, compared with soybean) | Blood glucose, drug intake, before meal ([2]; individual patient, oral dose before meal) | Blood glucose, drug intake, after meal ([2]; individual patient, two hours after 300 g boiled corn, oral dose before meal)
1 | c1ccc2c(Cc3c[nH]c4ccccc34)c[nH]c2c1 [HBD09, bis-indolymethane] | 18.2 (≈ 73.9 µM) | 51.24 (≈ 208 µM) | 15.6 (≈ 63.3 µM) | 31.2 (≈ 127 µM) | 18.59 (≈ 75.5 µM) | 48.51 (≈ 197 µM) | 2 | 2.6 ± 0.15 | 15 | 13.8 (≈ 56 µM) | 23.9 (≈ 97 µM) | – | – | – | – | – | – | –
2 | O=c1[nH]cc(F)c(=O)[nH]1 [CK1(fu), 5-fluorouracil] | – | – | – | – | – | – | 6 | 1.74 ± 0.11 | 43 | – | – | – | – | – | – | – | – | –
3 | C=CC(C)(C)c1cc(/C=C/C(=O)c2ccc(O)cc2)c(OC)cc1O [Chalcone A] | 9.7 (≈ 28.7 µM) | 29.70 (≈ 87.8 µM) | 9.1 (≈ 26.9 µM) | 21.3 (≈ 62.9 µM) | 9.1 (≈ 26.9 µM) | 24.77 (≈ 73.2 µM) | 0 | 2.36 ± 0.13 | 23 | 7.8 (≈ 23 µM) | 13.3 (≈ 39.3 µM) | synergistic effects | reduce the side effects brought by 5-fluorouracil dose | 13.6 | 11.4 | significant effects | 7.9 mM/L and 8.6 mM/L and 8.5 mM/L | 10.6 mM/L and 12.0 mM/L and 11.6 mM/L
4 | N.N.[Cl][Pt][Cl] [Cis-platinum] | 5.4 | – | 3.92 | – | 3.92 | – | – | – | – | – | – | – | – | – | – | – | – | –
